# Experimental data reported in US20210363254A1, “PHARMACEUTICAL COMBINATIONS” (Novartis AG, priority 2018, published 2021).
# Read-outs that look alike come from different tables or passages of the source.
# [1] = RDE (Regimen 1B 120 mg) (n = 9)
smiles,measurement,setting,value
"COc1ncc(-c2nc3c(n2C(C)C)[C@H](c2ccc(Cl)cc2)N(c2cc(Cl)cn(C)c2=O)C3=O)c(OC)n1 [HDM201, (S)-5-(5-Chloro-1-methyl-2-oxo-1,2-dihydro-pyridin-3-yl)-6-(4-chloro-phenyl)-2-(2,4-dimethoxy-pyrimidin-5-yl)-1-isopropyl-5,6-dihydro-1H-pyrrolo[3,4-d]imidazol-4-one]","Nausea, Grade 3/4","1B all subjects, N=20",1 n (%)
same,"Neuralgia, All Grades","1B all subjects, N=20",1 n (%)
same,"Neuralgia, Grade 3/4","1B all subjects, N=20",0 n (%)
same,"Neutropenia, All Grades","1B all subjects, N=20",6 n (%)
same,"Neutropenia, Grade 3/4","1B all subjects, N=20",5 n (%)
same,"Neutrophil Count Decreased, All Grades","1B all subjects, N=20",3 n (%)
same,"Neutrophil Count Decreased, Grade 3/4","1B all subjects, N=20",2 n (%)
same,"Oedema, All Grades","1B all subjects, N=20",1 n (%)
same,"Oedema, Grade 3/4","1B all subjects, N=20",0 n (%)
same,"Oral Candidiasis, All Grades","1B all subjects, N=20",1 n (%)
same,"Oral Candidiasis, Grade 3/4","1B all subjects, N=20",0 n (%)
same,"Platelet Count Decreased, All Grades","1B all subjects, N=20",4 n (%)
same,"Platelet Count Decreased, Grade 3/4","1B all subjects, N=20",0 n (%)
same,"Pruritus, All Grades","1B all subjects, N=20",1 n (%)
same,"Pruritus, Grade 3/4","1B all subjects, N=20",0 n (%)
same,"Thrombocytopenia, All Grades","1B all subjects, N=20",5 n (%)
same,"Thrombocytopenia, Grade 3/4","1B all subjects, N=20",2 n (%)
same,"Total, All Grades","1B all subjects, N=20",19 n (%)
same,"Total, Grade 3/4","1B all subjects, N=20",9 n (%)
same,"Vomiting, All Grades","1B all subjects, N=20",5 n (%)
same,"Vomiting, Grade 3/4","1B all subjects, N=20",0 n (%)
same,"Weight Decreased, All Grades","1B all subjects, N=20",1 n (%)
same,"Weight Decreased, Grade 3/4","1B all subjects, N=20",0 n (%)
same,"White Blood Cell Count Decreased, All Grades","1B all subjects, N=20",3 n (%)
same,"White Blood Cell Count Decreased, Grade 3/4","1B all subjects, N=20",0 n (%)
same,"Anemia, All Grades",All Regimens (N = 85),25 (29) n (%)
same,"Anemia, Grade 3/4",All Regimens (N = 85),10 n (%)
same,"Decreased Appetite, All Grades",All Regimens (N = 85),19 (22) n (%)
same,"Decreased Appetite, Grade 3/4",All Regimens (N = 85),2 n (%)
same,"Diarrhea, All Grades",All Regimens (N = 85),13 (15) n (%)
same,"Diarrhea, Grade 3/4",All Regimens (N = 85),0 n (%)
same,"Fatigue, All Grades",All Regimens (N = 85),19 (22) n (%)
same,"Fatigue, Grade 3/4",All Regimens (N = 85),2 n (%)
same,"Leukopenia, All Grades",All Regimens (N = 85),12 (14) n (%)
same,"Leukopenia, Grade 3/4",All Regimens (N = 85),8 n (%)
same,"Nausea, All Grades",All Regimens (N = 85),44 (52) n (%)
same,"Nausea, Grade 3/4",All Regimens (N = 85),1 n (%)
same,"Neutropenia, All Grades",All Regimens (N = 85),18 (21) n (%)
same,"Neutropenia, Grade 3/4",All Regimens (N = 85),15 n (%)
same,"Platelet Count Decreased, All Grades",All Regimens (N = 85),15 (18) n (%)
same,"Platelet Count Decreased, Grade 3/4",All Regimens (N = 85),7 n (%)
same,"Thrombocytopenia, All Grades",All Regimens (N = 85),27 (32) n (%)
same,"Thrombocytopenia, Grade 3/4",All Regimens (N = 85),14 n (%)
same,"Vomiting, All Grades",All Regimens (N = 85),19 (22) n (%)
same,"Vomiting, Grade 3/4",All Regimens (N = 85),0 n (%)
same,"White blood cell count decrease, All Grades",All Regimens (N = 85),11 (13) n (%)
same,"White blood cell count decrease, Grade 3/4",All Regimens (N = 85),3 n (%)
same,"Anemia, All Grades",[1],2 (22.2) n(%)
same,"Anemia, G3/4",[1],0 n(%)
same,"Leukopenia/white blood cell count decreased, All Grades",[1],3 (33.3) n(%)
same,"Leukopenia/white blood cell count decreased, G3/4",[1],0 n(%)
same,"Neutropenia/neutrophil count decreased, All Grades",[1],2 (22.2) n(%)
same,"Neutropenia/neutrophil count decreased, G3/4",[1],2 (22.2) n(%)
same,"Thrombocytopenia/platelet count decreased, All Grades",[1],4 (44.4) n(%)
same,"Thrombocytopenia/platelet count decreased, G3/4",[1],0 n(%)
same,"Anemia, All Grades",Regimen 1A (n = 26),10 (38.5) n(%)
same,"Anemia, G3/4",Regimen 1A (n = 26),3 (11.5) n(%)
same,"Leukopenia/white blood cell count decreased, All Grades",Regimen 1A (n = 26),9 (34.6) n(%)
same,"Leukopenia/white blood cell count decreased, G3/4",Regimen 1A (n = 26),5 (19.2) n(%)
same,"Neutropenia/neutrophil count decreased, All Grades",Regimen 1A (n = 26),9 (34.6) n(%)
same,"Neutropenia/neutrophil count decreased, G3/4",Regimen 1A (n = 26),8 (30.7) n(%)
same,"Thrombocytopenia/platelet count decreased, All Grades",Regimen 1A (n = 26),12 (46.2) n(%)
same,"Thrombocytopenia/platelet count decreased, G3/4",Regimen 1A (n = 26),8 (30.8) n(%)
same,"Anemia, All Grades",Regimen 1B (n = 20),5 (25.0) n(%)
same,"Anemia, G3/4",Regimen 1B (n = 20),0 n(%)
same,"Leukopenia/white blood cell count decreased, All Grades",Regimen 1B (n = 20),5 (25.0) n(%)
same,"Leukopenia/white blood cell count decreased, G3/4",Regimen 1B (n = 20),1 (5.0) n(%)
same,"Neutropenia/neutrophil count decreased, All Grades",Regimen 1B (n = 20),8 (40.0) n(%)
same,"Neutropenia/neutrophil count decreased, G3/4",Regimen 1B (n = 20),6 (30.0) n(%)
same,"Thrombocytopenia/platelet count decreased, All Grades",Regimen 1B (n = 20),9 (45.0) n(%)
same,"Thrombocytopenia/platelet count decreased, G3/4",Regimen 1B (n = 20),2 (10.0) n(%)
same,"Anemia, All Grades",Regimen 2A (n = 20),6 (30.0) n(%)
same,"Anemia, G3/4",Regimen 2A (n = 20),4 (20.0) n(%)
same,"Leukopenia/white blood cell count decreased, All Grades",Regimen 2A (n = 20),4 (20.0) n(%)
same,"Leukopenia/white blood cell count decreased, G3/4",Regimen 2A (n = 20),3 (15.0) n(%)
same,"Neutropenia/neutrophil count decreased, All Grades",Regimen 2A (n = 20),5 (25.0) n(%)
same,"Neutropenia/neutrophil count decreased, G3/4",Regimen 2A (n = 20),4 (20.0) n(%)
same,"Thrombocytopenia/platelet count decreased, All Grades",Regimen 2A (n = 20),10 (50.0) n(%)
same,"Thrombocytopenia/platelet count decreased, G3/4",Regimen 2A (n = 20),7 (35.0) n(%)
same,"Anemia, All Grades",Regimen 2C (n = 19),4 (21.1) n(%)
same,"Anemia, G3/4",Regimen 2C (n = 19),3 (15.8) n(%)
same,"Leukopenia/white blood cell count decreased, All Grades",Regimen 2C (n = 19),2 (10.5) n(%)
same,"Leukopenia/white blood cell count decreased, G3/4",Regimen 2C (n = 19),1 (5.3) n(%)
same,"Neutropenia/neutrophil count decreased, All Grades",Regimen 2C (n = 19),3 (15.8) n(%)
same,"Neutropenia/neutrophil count decreased, G3/4",Regimen 2C (n = 19),2 (10.5) n(%)
same,"Thrombocytopenia/platelet count decreased, All Grades",Regimen 2C (n = 19),8 (42.1) n(%)
same,"Thrombocytopenia/platelet count decreased, G3/4",Regimen 2C (n = 19),3 (15.8) n(%)
same,"nausea, all grade, patients","all 4 regimens, 44/85",52%
same,"Grade 3/4 hematological toxicities suspected to be study-drug related, patients",all treatment regimens,≤ 35%
same,overall incidence of grade 3/4 thrombocytopenia compared across the 4 regimens,regimen 1B,lowest
same,dose interruptions or discontinuations due to thrombocytopenia,regimen 1B 120 mg,no dose interruptions or discontinuations
same,grade 3/4 neutropenia,regimen 1B 120 mg,2 out of 9
same,non-hematologic dose limiting toxicities or grade 3/4 AEs,regimen 1B 120 mg,no non-hematologic dose limiting toxicities or grade 3/4 AEs
same,platelet transfusions required,regimen 1B 120 mg,no patients required platelet transfusions
same,time to first occurrence of G4 thrombocytopenia,regimen 1B 150 mg,> 100 days
same,therapeutic index among the 4 dosing regimens,regimen 1B (d1 and d8 of 4 w cycle),most favorable therapeutic index
same,"lipase increase, CTCAE grade 3/4, patients","regimen 1B, 20 patients",15%
same,"nausea, all grades, patients","regimen 1B, 20 patients",60.0%
same,"neutropenia/neutrophil count decreased, CTCAE grade 3/4, patients","regimen 1B, 20 patients",30.0%
same,"neutropenia/neutrophil count decreased, all grades, patients","regimen 1B, 20 patients",40.0%
same,patients with at least one CTCAE grade 3/4 AE suspected to be treatment-related,"regimen 1B, 20 patients",45.0%
same,"thrombocytopenia/platelet count decrease, CTCAE grade 3/4, patients","regimen 1B, 20 patients",10.0%
same,"thrombocytopenia/platelet count decreased, all grades, patients","regimen 1B, 20 patients",45.0%
same,"vomiting, all grades, patients","regimen 1B, 20 patients",25.0%
